Patent EP0882734B1, “5'-Deoxy-cytidine derivatives” (F. Hoffmann-La Roche AG, priority 1997, dated 1998)
Marks after values point to notes of the source that are not given here. Blank lines part the entries; values can stand above or below the compound they belong to.

Legend:
[1] = system: human prostate cancer xenograft PC-3; test: Enhancement of capecitabine antitumor activity in PC-3 xenograft; conditions: oral
Method: Compound A of Example 6 was examined for its activity to enhance the efficacy of capecitabine in BALB/c nude mice bearing the human prostate cancer xenograft PC-3. Compound A and capecitabine were orally given simultaneously or sequentially 5 successive days per week for 3 weeks starting on day 53 after the tumor inoculation when the tumor becomes palpable. On day 75, tumor volume gain and the percentage of the tumor growth inhibition were calculated.

[2] = mouse, in vivo, 420 min
Method: In this study, fluoropyrimidines, such as 5-FU, doxifluridine [5'-deoxy-5-fluorouridine] and capecitabine [5'-deoxy-5-fluoro-N^4-(n-pentyloxycarbonyl)cytidine], were given to BALB/c nude mice bearing the human gastric cancer xenograft MKN28 in combination with either compound A or 5-EU. Then, 5-FU levels in the plasma and tumor tissues were measured at 0.25, 0.5, 2, 4 and 7 hours after each fluoropyrimidine administration (n = 3 mice), and 5-FU AUC was calculated. […]

[3] = Cytotoxicity of compound A itself (data not shown)
[4] = molecular target: T1, DPD (Homo sapiens, UniProt Q12882); test: DPD activity in liver and tumor tissues of PC-3 xenograft mice after administration; assay type: in vivo, BALB/c nude mice; conditions: Tumor (PC-3), Compound A 0.5 mmol/kg, 5-EU 0.05 µmol/kg
T1 construct: The liver and tumor tissues were resected out from each group of three mice; from tissue; host or cells: liver (mouse host) and PC-3 tumour xenograft tissue from BALB/c nude mice
T1 sequence (Q12882 4-1025): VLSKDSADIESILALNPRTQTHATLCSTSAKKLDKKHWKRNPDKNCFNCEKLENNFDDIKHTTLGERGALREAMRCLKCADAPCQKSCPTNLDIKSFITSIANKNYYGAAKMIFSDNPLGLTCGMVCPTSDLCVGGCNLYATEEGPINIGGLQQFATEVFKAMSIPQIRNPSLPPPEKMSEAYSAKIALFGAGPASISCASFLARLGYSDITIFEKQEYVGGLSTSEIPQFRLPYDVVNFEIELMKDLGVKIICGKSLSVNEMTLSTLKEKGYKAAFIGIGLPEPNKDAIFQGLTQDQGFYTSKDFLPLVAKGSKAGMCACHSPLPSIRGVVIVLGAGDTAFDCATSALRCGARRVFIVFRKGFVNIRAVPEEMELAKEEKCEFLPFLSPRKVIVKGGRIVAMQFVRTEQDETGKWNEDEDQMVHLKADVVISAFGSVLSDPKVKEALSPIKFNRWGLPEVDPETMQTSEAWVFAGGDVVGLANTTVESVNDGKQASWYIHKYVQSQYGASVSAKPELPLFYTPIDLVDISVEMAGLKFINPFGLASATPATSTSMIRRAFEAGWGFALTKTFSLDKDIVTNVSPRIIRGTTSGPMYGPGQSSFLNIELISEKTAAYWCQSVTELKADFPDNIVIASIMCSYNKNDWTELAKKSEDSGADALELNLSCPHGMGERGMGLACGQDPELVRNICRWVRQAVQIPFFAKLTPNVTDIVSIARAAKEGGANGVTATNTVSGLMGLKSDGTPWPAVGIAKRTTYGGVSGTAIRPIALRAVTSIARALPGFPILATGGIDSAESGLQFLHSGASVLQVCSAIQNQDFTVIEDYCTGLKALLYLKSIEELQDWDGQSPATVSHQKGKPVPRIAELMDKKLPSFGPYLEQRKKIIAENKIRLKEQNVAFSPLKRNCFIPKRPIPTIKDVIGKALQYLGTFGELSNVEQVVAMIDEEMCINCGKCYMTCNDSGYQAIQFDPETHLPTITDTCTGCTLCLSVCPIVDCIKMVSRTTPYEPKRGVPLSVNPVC
Method: (§1) The liver and tumor tissues were resected out from each group of three mice at 2 and 8 hours after the administration of the Compound A (0.5 mmol/kg) and 5-EU ([…]). DPD activity in these tissues was then measured as described elsewhere (Naguib et al., Cancer Research 45, 5405-5412, 1985). […] Table 1. Inhibition of DPD activity by Compound A of Example 6

[5] = molecular target: T2, DPD (Mus musculus, UniProt Q8CHR6); test: as above; assay type: in vivo, BALB/c nude mice; conditions: Liver, Compound A 0.5 mmol/kg, 5-EU 0.05 µmol/kg
T2 construct: The liver and tumor tissues were resected out from each group of three mice; from tissue; host or cells: liver (mouse host) and PC-3 tumour xenograft tissue from BALB/c nude mice
T2 sequence (Q8CHR6 1-1025): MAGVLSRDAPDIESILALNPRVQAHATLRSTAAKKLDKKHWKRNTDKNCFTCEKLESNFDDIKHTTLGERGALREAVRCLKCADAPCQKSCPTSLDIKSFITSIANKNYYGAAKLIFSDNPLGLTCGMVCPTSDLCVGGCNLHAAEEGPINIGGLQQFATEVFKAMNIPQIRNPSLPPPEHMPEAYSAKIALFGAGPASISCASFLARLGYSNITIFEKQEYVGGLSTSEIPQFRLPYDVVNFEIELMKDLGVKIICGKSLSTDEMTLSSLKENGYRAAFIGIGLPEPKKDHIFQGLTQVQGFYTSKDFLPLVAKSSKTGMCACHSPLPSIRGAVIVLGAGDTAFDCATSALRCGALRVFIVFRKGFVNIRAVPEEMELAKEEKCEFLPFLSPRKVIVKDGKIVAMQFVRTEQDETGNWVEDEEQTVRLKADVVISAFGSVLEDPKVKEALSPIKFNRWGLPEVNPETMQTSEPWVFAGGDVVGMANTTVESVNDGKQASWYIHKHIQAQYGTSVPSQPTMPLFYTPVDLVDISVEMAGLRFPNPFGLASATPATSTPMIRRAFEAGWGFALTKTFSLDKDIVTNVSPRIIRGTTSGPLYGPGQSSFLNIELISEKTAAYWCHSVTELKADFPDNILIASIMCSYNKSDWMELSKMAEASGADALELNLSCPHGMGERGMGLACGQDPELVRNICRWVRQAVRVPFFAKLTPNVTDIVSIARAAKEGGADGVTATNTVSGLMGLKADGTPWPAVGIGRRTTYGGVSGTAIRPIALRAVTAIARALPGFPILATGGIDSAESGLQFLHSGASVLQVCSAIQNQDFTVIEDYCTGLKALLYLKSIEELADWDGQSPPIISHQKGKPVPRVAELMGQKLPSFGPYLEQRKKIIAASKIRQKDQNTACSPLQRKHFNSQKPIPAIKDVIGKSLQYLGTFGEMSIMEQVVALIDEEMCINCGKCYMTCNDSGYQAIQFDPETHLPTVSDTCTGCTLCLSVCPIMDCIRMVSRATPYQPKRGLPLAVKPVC
Method: as §1

[6] = Capecitabine 1.0 mmol/kg/d + Compound A 1.0 µmol/kg/d given one hour prior to capecitabine
[7] = Capecitabine 1.0 mmol/kg/d + Compound A 1.0 µmol/kg/d given simultaneously
[8] = 2 hr after administration, control 31
[9] = 8 hr after administration, control 29
[10] = 2 hr after administration, control 288
[11] = 8 hr after administration, control 162

5-FU AUC Tumor [2]: 30 nmolohr/mL
Structure (SMILES): CCCCCOC(=O)Nc1nc(=O)n([C@@H]2O[C@H](C)[C@@H](O)[C@H]2O)cc1F [Capecitabine, 5'-deoxy-5-fluoro-N^4-(n-pentyloxycarbonyl)cytidine]
Tumor growth inhibition (%) Day 75 ([1]; Capecitabine 1.0 mmol/kg/d alone, 5 successive days per week for 3 weeks): 23% | Tumor volume change (mm^3) Day 53-75 ([1]; Capecitabine 1.0 mmol/kg/d alone, 5 successive days per week for 3 weeks, control 981): 757 mm^3 | Body weight change (g) Day 75 ([1]; Capecitabine 1.0 mmol/kg/d alone, control -3.6): -3.4 g

DPD activities [4, 8]: 9 pmol/mg protein/min | DPD activities [4, 9]: 9 pmol/mg protein/min | DPD activities [5, 10]: 177 pmol/mg protein/min | DPD activities [5, 11]: 326 pmol/mg protein/min
Structure (SMILES): C#Cc1cn([C@@H]2O[C@H](C)[C@@H](O)[C@H]2O)c(=O)nc1NC(=O)OCCCCC [Compound A, 5'-deoxy-5-ethynyl-N^4-(n-pentyloxycarbonyl)cytidine]
cytotoxicity [3]: not cytotoxic | Body weight change (g) Day 75 [1, 6]: -0.3 g | Tumor growth inhibition (%) Day 75 [1, 6]: 80% | Tumor volume change (mm^3) Day 53-75 ([1]; Capecitabine 1.0 mmol/kg/d + Compound A 1.0 µmol/kg/d given one hour prior to capecitabine, p < 0.05 vs control): 201* mm^3 | Body weight change (g) Day 75 [1, 7]: -1.8 g | Tumor growth inhibition (%) Day 75 [1, 7]: 67% | Tumor volume change (mm^3) Day 53-75 ([1]; Capecitabine 1.0 mmol/kg/d + Compound A 1.0 µmol/kg/d given simultaneously, p < 0.05 vs control): 323* mm^3

5-FU AUC Plasma [2]: 2.6 nmolohr/mL | 5-FU AUC Tumor [2]: 8.0 nmolohr/mL
Structure (SMILES): C[C@H]1O[C@@H](n2cc(F)c(=O)[nH]c2=O)[C@H](O)[C@@H]1O [Doxifluridine, 5'-deoxy-5-fluorouridine]

DPD activities [4, 8]: 17 pmol/mg protein/min | DPD activities [4, 9]: 13 pmol/mg protein/min | DPD activities [5, 10]: 46 pmol/mg protein/min | DPD activities [5, 11]: 83 pmol/mg protein/min
Structure (SMILES): C#Cc1c[nH]c(=O)[nH]c1=O [Example 5-EU, 5-ethynyluracil]
